Laboratory results: patent publication US4657856A (priority 1980, dated 1987)

Columns and labels:
[1] = system: glutathione peroxidase produced from Mucor hiemalis YR-0929; test: substrate specificity of glutathione peroxidase (NADPH/glutathione reductase coupled assay, 340 nm); assay type: biochemical; settings: hydroperoxide as substrate of the enzyme; cumene hydroperoxide = 100
Method: The reaction is illustrated by the following formulae (1) and (2): [drawing 1] wherein GSSG represents oxidized glutathione, NADPH represents reduced nicotinamide adenine dinucleotide phosphate […] and NADP represents nicotinamide adenine dinucleotide phosphate.
(1) Substrate: 30 mM Cumene hydroperoxide aqueous solution: 0.2 ml
(2) Buffer: 100 mM Phosphate buffer (pH 7.0) containing 4 mM EDTA: 1.5 ml
(3) Reduced glutathione: 10 mM Aqueous solution: 0.3 ml
(4) Sodium azide: 10 mM Aqueous solution: 0.3 ml
(5) NADPH*: 1.6 mM Aqueous solution: 0.3 ml
(6) Glutathione reductase solution: Prepared by diluting with 100 mM phosphate buffer (pH 7.0) to 1 u/ml: 0.3 ml
(7) Enzyme solution: 0.1 ml
This enzyme acts upon cumene hydroperoxide, t-butyl hydroperoxide, linolenic acid hydroperoxide, etc.

[2] = system: glutathione peroxidase produced from Mucor hiemalis YR-0929; test: inhibition of glutathione peroxidase enzymatic action; assay type: biochemical; settings: 25° C., pH 7.0
Method: When reacted at 25° C. and pH 7.0, this enzymatic action is inhibited by the following substances.

[3] = inhibitor concentration 10^-3 M
[4] = inhibitor concentration 10^-4 M

Compound | Relative Activity (%) [1] | Percent Inhibition (%) [2, 3] | Percent Inhibition (%) [2, 4]
CC(C)(OO)c1ccccc1 [Cumene hydroperoxide] | 100% |  | 
NC(=O)CI [Iodoacetamide] |  | 16% | 1%
CCN1C(=O)C=CC1=O [N--Ethylmaleimide] |  | 93% | 3%
O=C(O)c1cc[c]([Hg][Cl])cc1 [PCMB, Parachloromercurybenzoate] |  | 99% | 75%
CC(C)(C)OO [t-Butyl hydroperoxide] | 175% |  | 
Linolenic acid hydroperoxide | 98% |  | 
